In US8487108B2, “Piperidinyl carbamate intermediates for the synthesis of aspartic protease inhibitors” (Vitae Pharmaceuticals, Inc., priority 2005, dated 2013):

Target: T1, trypsin-activated recombinant human renin (Homo sapiens, UniProt P00797)
T1 sequence (P00797 67-406): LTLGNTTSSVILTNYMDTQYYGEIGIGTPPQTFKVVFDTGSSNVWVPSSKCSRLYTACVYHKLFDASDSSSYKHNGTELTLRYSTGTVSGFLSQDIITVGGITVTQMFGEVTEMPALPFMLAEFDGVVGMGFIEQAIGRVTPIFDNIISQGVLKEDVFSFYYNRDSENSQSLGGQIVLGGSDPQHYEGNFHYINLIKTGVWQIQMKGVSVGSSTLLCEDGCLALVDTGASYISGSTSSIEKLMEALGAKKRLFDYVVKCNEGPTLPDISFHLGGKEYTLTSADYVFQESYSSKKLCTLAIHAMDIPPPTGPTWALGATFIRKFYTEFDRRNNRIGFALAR
Assay: Renin fluorescence assay (internally quenched peptide substrate)
Type: biochemical
Details: compounds I*
In short: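 Cleavage of an angiotensinogen-derived DABCYL-quenched peptide by trypsin-activated recombinant human renin (0.2-2 nM final) in 50 mM BES, 150 mM NaCl, 0.25 mg/mL BSA, pH 7.0; compounds 10 μM to 1 nM final. Fluorescence (ex 340/em 495 nm) followed 60-360 min at rt; linear-slope rates give percent inhibition versus uninhibited control.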

| Compound | IC50 |
| --- | --- |
| CCC[C@](OCCNC(=O)OC)(c1cccc(Cl)c1)[C@@H]1CCCN(C(=O)N[C@H](CNC)CC2CCCCC2)C1 [I*-150a, methyl 2-((R)-1-(3-chlorophenyl)-1-((R)-1-((S)-1-cyclohexyl-3-(methylamino)propan-2-ylcarbamoyl)piperidin-3-yl)butoxy)ethylcarbamate] | < 50 nM |
| CNC[C@H](CC1CCCCC1)NC(=O)N1CCC[C@@H]([C@@H](OCCNC(=O)OC)c2c(C)ccc(F)c2F)C1 [I*-96a, methyl 2-((R)-((R)-1-((S)-1-cyclohexyl-3-(methylamino)propan-2-ylcarbamoyl)piperidin-3-yl)(2,3-difluoro-6-methylphenyl)methoxy)ethylcarbamate] | < 10 nM |
| CNC[C@H](C[C@H]1CCCOC1)NC(=O)N1CCCC[C@@H]([C@@H](OCCNC(=O)OC)c2cccc(F)c2)C1 [I*-56a, methyl 2-((R)-(3-fluorophenyl)((R)-1-((S)-1-(methylamino)-3-((R)-tetrahydro-2H-pyran-3-yl)propan-2-ylcarbamoyl)azepan-3-yl)methoxy)ethylcarbamate] | < 10 nM |
| CNC[C@@H](NC(=O)N1CCC[C@@H]([C@@H](OCCNC(=O)OC)c2cc(F)ccc2C)C1)[C@@H](O)C1CCCC1 [I*-53a, methyl 2-((R)-((R)-1-((1S,2R)-1-cyclopentyl-1-hydroxy-3-(methylamino)propan-2-ylcarbamoyl)piperidin-3-yl)(5-fluoro-2-methylphenyl)methoxy)ethylcarbamate] | < 20 nM |
| CNC[C@H](C[C@H]1CCCCOC1)NC(=O)N1CCC[C@@H]([C@@H](OCCNC(=O)OC)c2cc(F)ccc2C)C1 [I*-79a, methyl 2-((R)-(5-fluoro-2-methylphenyl)((R)-1-((S)-1-(methylamino)-3-((R)-oxepan-3-yl)propan-2-ylcarbamoyl)piperidin-3-yl)methoxy)ethylcarbamate] | < 10 nM |
| CCNC(=O)CO[C@@H](c1cccc(Cl)c1)[C@@H]1CCCN(C(=O)N[C@H](CNC)CC2CCOCC2)C1 [I*-31a, (R)-3-((R)-(3-chlorophenyl)(2-(ethylamino)-2-oxoethoxy)methyl)-N—((S)-1-(methylamino)-3-(tetrahydro-2H-pyran-4-yl)propan-2-yl)piperidine-1-carboxamide] | > 50 nM |
| CNC[C@H](CC1CCOCC1)NC(=O)N1CCC[C@@H]([C@@H](OCCNC(=O)OC)c2cccc(F)c2F)C1 [I*-71a, methyl 2-((R)-(2,3-difluorophenyl)((R)-1-((S)-1-(methylamino)-3-(tetrahydro-2H-pyran-4-yl)propan-2-ylcarbamoyl)piperidin-3-yl)methoxy)ethylcarbamate] | < 20 nM |
| CNC[C@H](CC1(C)CCCCC1)NC(=O)N1CCC[C@@H]([C@@H](OCCNC(=O)OC)c2cccc(F)c2)C1 [I*-43a, methyl 2-((R)-(3-fluorophenyl)((R)-1-((S)-1-(methylamino)-3-(1-methylcyclohexyl)propan-2-ylcarbamoyl)piperidin-3-yl)methoxy)ethylcarbamate] | < 10 nM |
| CNC[C@H](CC1CCCC1)NC(=O)N1CCC[C@@H]([C@@H](OCCNC(=O)OC)c2cccc(Cl)c2)C1 [I*-29a, methyl 2-((R)-(3-chlorophenyl)((R)-1-((S)-1-cyclopentyl-3-(methylamino)propan-2-ylcarbamoyl)piperidin-3-yl)methoxy)ethylcarbamate] | < 1 nM |
| CNC[C@H](CC1CCOCC1)NC(=O)N1CCC[C@@H]([C@@H](OCCNC(=O)OC)c2ccccc2)C1 [I*-3a, methyl 2-((R)—((R)-1-((S)-4-(methylamino)-3-(tetrahydro-2H-pyran-4-yl)propan-2-ylcarbamoyl)piperidin-3-yl)(phenyl)methoxy)ethylcarbamate] | < 50 nM |

The remaining lines, values ahead:

| IC50 | Compound |
| --- | --- |
| < 10 nM | CNC[C@H](CC1CCCCC1)NC(=O)N1CCC[C@@H]([C@@H](OCCNC(=O)OC)c2cc(F)cc(F)c2O)C1 [I*-114a, methyl 2-((R)—((R)-1-((S)-1-cyclohexyl-3-(methylamino)propan-2-ylcarbamoyl)piperidin-3-yl)(3,5-difluoro-2-hydroxyphenyl)methoxy)ethylcarbamate] |
| < 10 nM | CNC[C@H](C[C@H]1CCC2(CC2)OC1)NC(=O)N1CCC[C@@H]([C@@H](OCCNC(=O)OC)c2cccc(F)c2)C1 [I*-159a, methyl 2-((R)-(3-fluorophenyl)((R)-1-((S)-1-((R)-4-oxaspiro[2.5]octan-6-yl)-3-(methylamino)propan-2-ylcarbamoyl)piperidin-3-yl)methoxy)ethylcarbamate] |
| < 1 nM | CNC[C@H](CC1CCC(F)(F)CC1)NC(=O)N1CCC[C@@H]([C@@H](OCCNC(=O)OC)c2cc(F)cc(Cl)c2)C1 [I*-153a, methyl 2-((R)-(3-chloro-5-fluorophenyl)((R)-1-((S)-1-(4,4-difluorocyclohexyl)-3-(methylamino)propan-2-ylcarbamoyl)piperidin-3-yl)methoxy)ethylcarbamate] |
| < 50 nM | CNC[C@H](CC1CCC(O)CC1)NC(=O)N1CCC[C@@H]([C@@H](OCCNC(=O)OC)c2cccc(Cl)c2)C1 (stereo partly drawn) [I*-102a, methyl 2-((R)-(3-chlorophenyl)((R)-1-((S)-1-(4-hydroxycyclohexyl)-3-(methylamino)propan-2-ylcarbamoyl)piperidin-3-yl)methoxy)ethylcarbamate] |
| < 10 nM | CNCC(C[C@@H]1C[C@@H](F)[C@@H](F)C1)NC(=O)N1CCC[C@@H]([C@@H](OCCNC(=O)OC)c2cccc(Cl)c2)C1 (stereo partly drawn) [I*-125a, methyl 2-((R)-(3-chlorophenyl)((R)-1-((S)-1-((1s,3R,4S)-3,4-difluorocyclopentyl)-3-(methylamino)propan-2-ylcarbamoyl)piperidin-3-yl)methoxy)ethylcarbamate] |
| < 1 nM | CNC[C@H](C[C@H]1CCC2(CC2)OC1)NC(=O)N1CCC[C@@H]([C@@H](OCCNC(=O)OC)c2cc(F)cc(F)c2)C1 [I*-160a, methyl 2-((R)-(3,5-difluorophenyl)((R)-1-((S)-1-((R)-4-oxaspiro[2.5]octan-6-yl)-3-(methylamino)propan-2-ylcarbamoyl)piperidin-3-yl)methoxy)ethylcarbamate] |
| < 10 nM | CNC[C@H](C[C@H]1CCCCOC1)NC(=O)N1CCC[C@@H]([C@@H](OCCNC(=O)OC)c2cc(F)cc(F)c2)C1 [I*-113a, methyl 2-((R)-(3,5-difluorophenyl)((R)-1-((S)-1-(methylamino)-3-((R)-oxepan-3-yl)propan-2-ylcarbamoyl)piperidin-3-yl)methoxy)ethylcarbamate] |
| > 50 nM | CNC[C@H](CC1CCOCC1)NC(=O)N1CCC[C@@H]([C@@H](OCCNC(=O)OC)c2ccc(F)c(Cl)c2F)C1 [I*-148a, methyl 2-((R)-(3-chloro-2,4-difluorophenyl)((R)-1-((S)-1-(methylamino)-3-(tetrahydro-2H-pyran-4-yl)propan-2-ylcarbamoyl)piperidin-3-yl)methoxy)ethylcarbamate] |
| < 1 nM | CNC[C@H](C[C@H]1CCCCOC1)NC(=O)N1CCC[C@@H]([C@@H](OCCNC(=O)OC)c2cccc(Cl)c2F)C1 [I*-140a, methyl 2-((R)-(3-chloro-2-fluorophenyl)((R)-1-((S)-1-(methylamino)-3-((R)-oxepan-3-yl)propan-2-ylcarbamoyl)piperidin-3-yl)methoxy)ethylcarbamate] |
| < 10 nM | CNC[C@H](CC1CCCCCC1)NC(=O)N1CCC[C@@H]([C@@H](OCCNC(=O)OC)c2cccc(Cl)c2F)C1 [I*-135a, methyl 2-((R)-(3-chloro-2-fluorophenyl)((R)-1-((S)-1-cycloheptyl-3-(methylamino)propan-2-ylcarbamoyl)piperidin-3-yl)methoxy)ethylcarbamate] |
| < 10 nM | COC(=O)NCCO[C@@H](c1cc(F)cc(Cl)c1)[C@@H]1CCCN(C(=O)NC[C@@H](N)C[C@H]2CCCCOC2)C1 [I*-122a, methyl 2-((R)-((R)-1-((S)-2-amino-3-((R)-oxepan-3-yl)propylcarbamoyl)piperidin-3-yl)(3-chloro-5-fluorophenyl)methoxy)ethylcarbamate] |
| < 1 nM | CN[C@H](CNC(=O)N1CCC[C@@H]([C@@H](OCCNC(=O)OC)c2cc(Cl)ccc2C)C1)C[C@H]1CCCCOC1 [I*-133a, methyl 2-((R)-(5-chloro-2-methylphenyl)((R)-1-((S)-2-(methylamino)-3-((R)-oxepan-3-yl)propylcarbamoyl)piperidin-3-yl)methoxy)ethylcarbamate] |
| < 20 nM | CNC[C@H](C[C@H]1CCC(C)(C)OC1)NC(=O)N1CCC[C@@H]([C@@H](OCCNC(=O)OC)c2ccccc2)C1 [I*-156a, methyl 2-((R)—((R)-1-((S)-1-((R)-6,6-dimethyl-tetrahydro-2H-pyran-3-yl)-3-(methylamino)propan-2-ylcarbamoyl)piperidin-3-yl)(phenyl)methoxy)ethylcarbamate] |
| < 10 nM | CNC[C@H](C[C@H]1CCC2(CC2)OC1)NC(=O)N1CCC[C@@H]([C@@H](OCCNC(=O)OC)c2cccc(Cl)c2)C1 [I*-158a, methyl 2-((R)-(3-chlorophenyl)((R)-1-((S)-1-((R)-4-oxaspiro[2.5]octan-6-yl)-3-(methylamino)propan-2-ylcarbamoyl)piperidin-3-yl)methoxy)ethylcarbamate] |
